The numbers were not newly measured in patent US20160083345A1, “POLYMORPHIC FORMS OF LOMITAPIDE AND ITS SALTS AND PROCESSES FOR THEIR PREPARATION” (CADILA HEALTHCARE LIMITED, priority 2014, published 2016), which cites them from elsewhere.

Where a name gives a salt, the structure may show the parent alone. Read-outs that look alike come from different tables or passages of the source.

As to `O=C(NC1CCN(CCCCC2(C(=O)NCC(F)(F)F)c3ccccc3-c3ccccc32)CC1)c1ccccc1-c1ccc(C(F)(F)F)cc1` [Lomitapide mesylate, N-(2,2,2-trifluoroethyl)-9-[4-[4-[[[4′(trifluoromethyl)[1,1′-biphenyl]-2-yl]carbonyl]amino]-1-piperidinyl]butyl]-9H-fluorene-9carboxamide methanesulfonate], the solubility result by setting is: (1-octanol) “sparingly soluble”; (2-butanol) “soluble”; (2-propanol) “sparingly soluble”; (acetone) “freely soluble”; (acetonitrile) “soluble”; (aqueous solutions of pH 2 to 5) “slightly soluble”. Besides, the solubility entry (ethanol) is “freely soluble”; the solubility entry (ethyl acetate) is “slightly soluble”; the solubility entry (heptane) was “insoluble”; the solubility result (methanol) is “freely soluble”; the solubility entry (methylene chloride) is “soluble”.
